Experimental data: the METLIN SMRT retention time set (Domingo-Almenara et al. 2019)

Experiment: gradient 5% acetonitrile 3 min, to 50% in 2 min, to 85% in 15 min, held 3 min, 100 µL/min
Conditions: column: Zorbax Extend-C18 2.1 x 50 mm; eluents: water / acetonitrile, 0.1% formic acid
Procedure, shortened: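 Retention time was recorded from adduct peaks, which were picked computationally and each inspected manually. Pure standards ran in mixtures of ~100 molecules on HPLC coupled to a quadrupole time-of-flight mass spectrometer, in positive and negative ionization mode, through a Zorbax Extend-C18 column (2.1 × 50 mm, 1.8 μm) at 100 μL/min. Eluents were water and acetonitrile, each with 0.1% formic acid.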

RP-LC retention time [s] | Structure (SMILES)
1100 | CN(C)c1cccc(/C=C(\C#N)c2ccccc2)c1
694 | CC(=O)Nc1ccc(NC(=O)Cn2cccc(-c3nc(-c4ccccc4)no3)c2=O)cc1
640 | COc1cccc(N2CCN(CC(O)c3ccc4c(c3)OCO4)CC2)c1 (centres undefined)
668 | O=C(Cn1nc2c(N3CCCCCC3)nccn2c1=O)Nc1ccc2c(c1)OCCO2
910 | CCOC(=O)N1CCN(c2ncc(S(=O)(=O)c3ccc(Cl)cc3)c(N)n2)CC1
612 | CCc1cc(=O)n(CC(=O)Nc2ccc(C)cc2)c(N2CCOCC2)n1
996 | Cc1ccc(CNS(=O)(=O)c2ccc(-c3c(C)noc3C)cc2)cc1
812 | CCC(=O)N1CCc2cc(CNS(=O)(=O)c3ccc(OC)cc3)ccc21
917 | O=C(c1cccc(Cl)c1)N1CCN(c2cc(-c3ccc(Cl)cc3)[nH]n2)CC1
602 | CCc1cc(N2CCN(C(=O)COc3ccc(OC)cc3)CC2)nc2nncn12
885 | O=c1n(Cc2c(F)cccc2Cl)nc2ccc(S(=O)(=O)N3CCCC3)cn12
821 | COC(=O)c1cc(OCC(=O)Nc2ccc3c(c2)OCO3)c2cc(C)ccc2n1
558 | CCOC(=O)CCC(=O)Nc1nnc2n1CCS2
716 | COc1ccccc1N1CCN(C(=O)C2CCN(S(=O)(=O)c3cn(C(C)C)cn3)CC2)CC1
882 | COc1ccc(-c2cc3n(n2)CCCN(S(=O)(=O)c2ccc(C(C)=O)cc2)C3)cc1
658 | CNC(=O)c1cc(=O)n(CC(=O)Nc2ccc3c(c2)OCO3)c2ccccc12
626 | O=C1CCN(C(=O)C2CCN(C(=O)C3CCC3)CC2)CCCCCCN1
754 | CN(C)c1ccc(CNC(=O)c2nnc(-c3ccc(S(=O)(=O)N4CCCCC4)cc3)o2)cc1
668 | CCOC(=O)c1cccc(Nc2c(-c3ccc(OC)cc3)nc3cnccn23)c1
727 | COc1ccc(C2(C)NC(=O)N(CC(=O)Nc3ccc([N+](=O)[O-])cc3)C2=O)cc1 (centres undefined)
799 | Cc1ccc(N2C(=O)CCS2(=O)=O)cc1S(=O)(=O)NCCc1c[nH]c2ccccc12
1040 | COc1cccc(-c2csc(-c3nnn(-c4ccccc4)c3N)n2)c1

RP-LC retention time [s] | Structure (SMILES)
946 | O=C(CN1C(=O)CC(c2cccs2)=Nc2ccccc21)Nc1ccc(F)cc1F
845 | Cc1ccc(C)c(NC(=O)Cc2csc3nc(-c4ccccc4)cn23)c1
646 | Cc1ccc2nc(-c3ccc(O)cc3)c(Nc3ccc4c(c3)OCCO4)n2c1
822 | COc1ccc(-c2ccc3nc(N4CCC(C(=O)N5CCOCC5)CC4)sc3n2)cc1
840 | Cn1c(=O)c(SCC(=O)NCCCc2ccccc2)nc2ccccc21
1100 | Cc1ccc(C)c(Cn2nc3ccc(S(=O)(=O)N4CCc5ccccc5C4)cn3c2=O)c1
1220 | Cc1cc(C)cc(NC(=O)Nc2nccn(-c3cc(C)cc(C)c3)c2=O)c1
831 | Cc1ccc(NC(=O)C2CCN(S(=O)(=O)c3cc(C(=O)N4CCCC4)cs3)CC2)c(C)c1
924 | CCCCNC(=O)Cn1nc2c3cc(-c4ccc(C)c(C)c4)nn3ccn2c1=O
567 | CC(C)CCN1CCC(N2CCN(C(=O)c3cccs3)CC2)C1=O (centres undefined)
746 | O=C(NCc1ccc(F)cc1)C1CCCN(c2ncnc3c2oc2ccccc23)C1 (centres undefined)
1140 | COc1ccc(-c2noc(-c3nnn4c3COC(c3ccc(Cl)cc3)C4)n2)c(OC)c1 (centres undefined)
683 | CCOC(=O)CCC(=O)Nc1nnc(-c2cc(C)oc2C)o1
650 | CN1C(=O)[C@H]2CN(Cc3ccccc3C#N)C[C@H]2C1=O
960 | CCCn1c(=O)sc2cc(S(=O)(=O)N3CCC(C(=O)NCc4ccc(C)o4)CC3)ccc21
590 | Cc1oc(C(C)C)nc1C(=O)NCc1ccncc1
660 | CN(CC1CCOC1)C(=O)Nc1cccc(F)c1 (centres undefined)
602 | O=C(C1CCN(c2nnc(-c3ccccc3)o2)CC1)N1CCN(c2ccccn2)CC1
1000 | CCc1ccc(S(=O)(=O)N2CCC(C(=O)NCCc3csc(-c4cccs4)n3)CC2)cc1
642 | COc1cc(C(=O)Nc2cccc(-c3cn4cccnc4n3)c2)cc(OC)c1OC
806 | Cc1ccc(-c2cn3c(CC(=O)Nc4ccc5c(c4)OCCO5)csc3n2)cc1C
648 | CCNC(=O)C1CCCN(c2nc3ncn(CC(=O)NCc4ccc(F)cc4)c(=O)c3s2)C1 (centres undefined)

RP-LC retention time [s] | Structure (SMILES)
650 | CCN1CCC2(CC1)OC(=O)C(C)=C2C(=O)Nc1ccc(Br)cc1F
954 | O=C(NC1CCCC1)C(c1ccc(Cl)cc1)N1CCN(C(=O)c2ccco2)CC1 (centres undefined)
893 | Cn1nc(-c2nc(C3CC3)no2)c2c1CCN(C(=O)c1ccc(Br)cc1)C2
952 | Cc1ccc(Cn2nc3n(Cc4ccc(F)cc4)c(=O)c4nn(C)cc4n3c2=O)cc1
736 | O=C(NCc1noc(-c2ccco2)n1)c1coc(C2CC2)n1
858 | COc1ccccc1CNC(=O)Cn1ccc2ccc(N3CCOCC3)nc21
792 | O=S(=O)(Nc1ccc(F)cc1)c1cccc2cccnc12
660 | CCc1nc(-c2csc(S(=O)(=O)N3CCC(C(=O)Nc4ccc(C)c(C)c4)CC3)c2)no1
581 | CCN1CCCC1CN(CC(=O)N1CCNCC1)S(=O)(=O)c1cc(C)ccc1C (centres undefined)
783 | Cc1ccc(F)cc1NS(=O)(=O)c1cc2n(c1)CCN(C(C)C)C2=O
998 | CCc1cc(C(=O)Nc2cccc(F)c2)nc2ccnn12
691 | O=C(Nc1cccc(Cl)c1)Nn1cnnc1
660 | COc1cccc(CNC(=O)c2nsc(C(=O)N3CCN(c4ccccn4)CC3)c2N)c1
640 | CCNC(=O)C1CCCN(c2nc3ncn(CC(=O)NCc4ccc5c(c4)OCO5)c(=O)c3s2)C1 (centres undefined)
960 | COc1cccc(CNC(=O)c2nnc(-c3ccc(S(=O)(=O)N4CCCCC4)cc3)o2)c1
762 | O=C(N1CCCC1)N1CCN(c2ccccc2F)CC1
663 | CCC1CN2C=NC(N3CCN(C(=O)Nc4cccc(SC)c4)CC3)=CC2=N1 (centres undefined)
774 | C=CCNC(=O)CN1C(=O)C2CCCCN2c2ccc(S(=O)(=O)N(C)C)cc21 (centres undefined)
1020 | CCOc1ccc(S(=O)(=O)N2CCCC(C(=O)N3CCN(c4ccccc4)CC3)C2)cc1 (centres undefined)
654 | CCOC(=O)CSc1nnc(-c2cccnc2)n1-c1ccccc1
932 | CCOC(=O)c1nc(Nc2ccc(CC)cc2)c2ccccc2n1
611 | CC(C)N1CCN(S(=O)(=O)c2ccc(-c3nnc(C4CC4)o3)o2)CC1

RP-LC retention time [s] | Structure (SMILES)
612 | CC(C)c1nncn1C1CCN(C(=O)c2ccc3c(c2)OCO3)C1 (centres undefined)
741 | CCn1ncc(Cl)c1C(=O)N1CCCC1c1cc(C)no1 (centres undefined)
572 | CCC(=O)Nc1ccc(N(C)CCc2c(C)nn(C)c2C)c(C(=O)O)c1
581 | Cn1cnnc1SCC(=O)N1CCCCCC1
794 | Cc1cc(C2CCCN2C(=O)Nc2cc(Cl)ccc2C)on1 (centres undefined)
890 | CCOC(=O)c1c(NCCC(C)C)c2cc(Cl)ccc2[nH]c1=O
896 | O=C(Cc1ccccc1Cl)Nc1nnc(-c2ccc(OC(F)(F)F)cc2)o1
1050 | CC(C)Oc1ccc(-c2noc(CN3N=NC4C(=O)N(c5cccc(F)c5)C(=O)C43)n2)cc1 (centres undefined)
696 | NC(=O)CSc1nnc(-c2cccc(Cl)c2)o1
893 | Cc1ccsc1C(=O)Nc1ccc(N2CCN(c3ccccc3)C2=O)nc1
610 | CCOc1ccccc1N1CC(c2nc3ccccc3n2CCN2CCOCC2)CC1=O (centres undefined)
640 | Cc1ccc2c(Nc3ccc(O)cc3)c(C(=O)OC(C)C)cnc2n1
622 | O=C(Nc1cc(-c2ccco2)nn1CCO)c1ccc(S(=O)(=O)N2CCOCC2)cc1
713 | O=C(C1CCC1)N1CCCC(OCc2nc(-c3ccncc3)no2)C1 (centres undefined)
568 | Cc1nnc(-c2nnc(N3CCCC3)c3ccccc23)o1
1180 | COc1cccc(Cn2c(=O)c3sccc3n(Cc3nc(-c4ccc(Cl)c(F)c4)no3)c2=O)c1
978 | COc1cccc(-c2noc(Cn3c(=O)n(-c4ccccc4C)c(=O)c4sccc43)n2)c1
906 | CCOC(=O)C1=C(C)NC2=C(C(=O)C(C(=O)OC)C(C)C2)C1c1ccccc1OCC (centres undefined)
765 | COc1ccc(N2C(=O)NC3CC2(C)Oc2ccc(OC)cc23)cc1 (centres undefined)
803 | Cn1nnc2cc(-c3noc(CN4C(=O)COc5ccccc54)n3)ccc21
846 | CCN1C(=O)CCc2cc(NS(=O)(=O)Cc3cccc(Cl)c3)ccc21
930 | CCn1nc(C)n2cc(S(=O)(=O)NCc3ccc(F)c(Cl)c3)cc2c1=O

Structure (SMILES) | RP-LC retention time [s]
Cc1nc(Nc2ccc(F)cn2)sc1C(=O)N1CCC2(CC1)OCCO2 | 686
